Laboratory results as given in patent US8613927B2, “High affinity human antibodies to human nerve growth factor” (Regeneron Pharmaceuticals, Inc., priority 2007, dated 2013).

Assays:
[1] = molecular target: T1, human NT-3 binding to human TrkC-hFc (Homo sapiens, UniProt P20783); assay: BIACORE, NT-3 binding to TrkC-hFc surface in presence of antibody; conditions: 20 nM NT-3 + 500 nM sample; normalized to IgG1 control
T1 sequence (P20783 139-257): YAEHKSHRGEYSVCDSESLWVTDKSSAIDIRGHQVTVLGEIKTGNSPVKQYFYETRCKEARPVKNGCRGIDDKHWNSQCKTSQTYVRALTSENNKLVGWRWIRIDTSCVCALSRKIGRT
Procedure: (§1) Human TrkA-hFc (9300 RU), human TrkB-hFc (6000 RU), human TrkC-hFc (9100 RU) and human p75-hFc (7500 RU) were covalently coupled to BIACORE® CM5 chip surfaces by amine-coupling procedure. […] The binding mixture was first incubated at room temperature to reach equilibrium (about 1 hr) and then was injected over the above TrkA-hFc, TrkB-hFc, TrkC-hFc and p75-hFc surfaces. The level of human NT-3 binding in each sample was measured. The binding RU from each sample mixture was normalized according to the RU value from the negative control sample (i.e., 20 nM human NT-3 with 500 nM AVASTIN®) and presented as % binding to Trk surfaces (Table 9).

[2] = molecular target: T2, human NT-3 binding to human p75-hFc (Homo sapiens, UniProt P20783); assay: BIACORE, NT-3 binding to p75-hFc surface in presence of antibody; conditions: 20 nM NT-3 + 500 nM sample; normalized to IgG1 control
T2 sequence (P20783 139-257): T1 sequence (P20783 139-257)
Procedure: as §1

[3] = molecular target: T3, human NT-3 binding to human TrkB-hFc (Homo sapiens, UniProt P20783); assay: BIACORE, NT-3 binding to TrkB-hFc surface in presence of antibody; conditions: 20 nM NT-3 + 500 nM sample; normalized to IgG1 control
T3 sequence (P20783 139-257): T1 sequence (P20783 139-257)
Procedure: as §1

C57BL/6 male mice = assay: Seltzer model of neuropathic pain, Hargreaves' test; assay type: in vivo, mouse
Excerpt: Neuropathic pain. The mouse Seltzer model of neuropathic pain (Malmberg et al. (1998) Pain 76:215-222) was used with C57BL/6 male mice, in which a partial nerve injury was produced by tying a tight ligature with a 7-0 silk suture around approximately ⅓ to ½ the diameter of the sciatic nerve of one single thigh per mouse. Post-surgery, the mice were allowed to recover for at least two days and then they were studied for several weeks post-surgery for thermal hyperalgesia in the Hargreaves' test. Controls were sham-operated mice in which the sciatic nerve was exposed and elevated but not tied. Following surgery, the mice were tested at day […] and at day 7 post-surgery to confirm that the thermal hyperalgesia had developed.
Following the Seltzer surgery, mice were tested at days 5 and 7 post-surgery to confirm that the thermal hyperalgesia had developed.

With “IgG1 Control: negative binding control, IgG1 control (AVASTIN®; Genentech, CA)” the “% binding to TrkC-hFc surface” value [1] was 100%, the “% binding to p75-hFc surface” value [2] was 100% and the “% binding to TrkB-hFc surface” value [3] was 100%. For the same substance, the pain relief (C57BL/6 male mice; 50 mg/kg s.c. or i.p. at day 7 post-surgery, p<0.001-0.05) was “no effect”, the “mean percent change from Hargreaves baseline” value (shortened to “mean percent change”) (C57BL/6 male mice; Table 23, Seltzer, 100 mg/kg s.c. at day 7, day 0 after surgery) was 0.0 ± 0.0% and the “mean percent change” value (C57BL/6 male mice; Table 23, Seltzer, 100 mg/kg s.c. at day 7, day 4) was −46.9 ± 6.5%. For the same substance, the “mean percent change” value (C57BL/6 male mice; Table 23, Seltzer, 100 mg/kg s.c. at day 7, day 7) was −55.3 ± 6.4%, the “mean percent change” value (C57BL/6 male mice; Table 23, Seltzer, 100 mg/kg s.c. at day 7, day 8) was −55.6 ± 4.3% and the “mean percent change” value (C57BL/6 male mice; Table 23, Seltzer, 100 mg/kg s.c. at day 7, day 11) was −57.3 ± 5.1%. The “mean percent change” value (C57BL/6 male mice; Table 23, Seltzer, 100 mg/kg s.c. at day 7, day 13) was −59.7 ± 6.5%, the “mean percent change” value (C57BL/6 male mice; Table 23, Seltzer, 100 mg/kg s.c. at day 7, day 16) was −51.2 ± 4.0% and the “mean percent change” value (C57BL/6 male mice; Table 23, Seltzer, 100 mg/kg s.c. at day 7, day 18) was −57.7 ± 4.6%. The “mean percent change” value (C57BL/6 male mice; Table 23, Seltzer, 100 mg/kg s.c. at day 7, day 20) was −53.2 ± 4.9%, the “mean percent change” value (C57BL/6 male mice; Table 23, Seltzer, 100 mg/kg s.c. at day 7, day 24) was −54.9 ± 4.1% and the “mean percent change” value (C57BL/6 male mice; Table 23, Seltzer, 100 mg/kg s.c. at day 7, day 28) was −51.81 ± 4.1%. For the same substance, the “mean percent change” value (C57BL/6 male mice; Table 23, Seltzer, 100 mg/kg s.c. at day 7, day 31) was −49.7 ± 2.5%, the “mean percent change” value (C57BL/6 male mice; Table 23, Sham-operated, 100 mg/kg s.c. at day 7, day 0 after surgery) was 0.0 ± 0.0% and the “mean percent change” value (C57BL/6 male mice; Table 23, Sham, 100 mg/kg s.c. at day 7, day 4) was −7.2 ± 3.7%. For the same substance, the “mean percent change” value (C57BL/6 male mice; Table 23, Sham, 100 mg/kg s.c. at day 7, day 7) was 8.7 ± 13.2%, the “mean percent change” value (C57BL/6 male mice; Table 23, Sham, 100 mg/kg s.c. at day 7, day 8) was −9.4 ± 4.1% and the “mean percent change” value (C57BL/6 male mice; Table 23, Sham, 100 mg/kg s.c. at day 7, day 11) was 14.7 ± 11.4%. The “mean percent change” value (C57BL/6 male mice; Table 23, Sham, 100 mg/kg s.c. at day 7, day 13) was −6.9 ± 3.3%, the “mean percent change” value (C57BL/6 male mice; Table 23, Sham, 100 mg/kg s.c. at day 7, day 16) was 2.3 ± 3.0% and the “mean percent change” value (C57BL/6 male mice; Table 23, Sham, 100 mg/kg s.c. at day 7, day 18) was 0.2 ± 2.8%. The “mean percent change” value (C57BL/6 male mice; Table 23, Sham, 100 mg/kg s.c. at day 7, day 20) was 3.6 ± 2.4%, the “mean percent change” value (C57BL/6 male mice; Table 23, Sham, 100 mg/kg s.c. at day 7, day 24) was 1.5 ± 2.9% and the “mean percent change” value (C57BL/6 male mice; Table 23, Sham, 100 mg/kg s.c. at day 7, day 28) was 0.7 ± 2.5%. The “mean percent change” value (C57BL/6 male mice; Table 23, Sham, 100 mg/kg s.c. at day 7, day 31) was 1.1 ± 2.3%, the “mean percent change” value (C57BL/6 male mice; Table 24, 100 mg/kg s.c. injected Day 7 post-surgery, Baseline) was 0.0 ± 0.0% and the “mean percent change” value (C57BL/6 male mice; Table 24, 100 mg/kg s.c. injected Day 14 post-surgery, Baseline) was 0.0 ± 0.0%. The “mean percent change” value (C57BL/6 male mice; Table 24, 100 mg/kg s.c. injected Day 21 post-surgery, Baseline) was 0.0 ± 0.0%, the “mean percent change” value (C57BL/6 male mice; Table 24, injected Day 7, Day 5 after surgery) was −53.5 ± 5.9% and the “mean percent change” value (C57BL/6 male mice; Table 24, injected Day 7, Day 8) was −56.7 ± 3.8%. The “mean percent change” value (C57BL/6 male mice; Table 24, injected Day 7, Day 10) was −64.3 ± 2.6%, the “mean percent change” value (C57BL/6 male mice; Table 24, injected Day 7, Day 14) was −66.9 ± 5.1% and the “mean percent change” value (C57BL/6 male mice; Table 24, injected Day 7, Day 15) was −60.6 ± 4.0%. The “mean percent change” value (C57BL/6 male mice; Table 24, injected Day 7, Day 17) was −58.9 ± 3.5%, the “mean percent change” value (C57BL/6 male mice; Table 24, injected Day 7, Day 21) was −54.1 ± 9.6% and the “mean percent change” value (C57BL/6 male mice; Table 24, injected Day 7, Day 22) was −56.3 ± 4.9%. For the same substance, the “mean percent change” value (C57BL/6 male mice; Table 24, injected Day 7, Day 24) was −55.6 ± 5.1%, the “mean percent change” value (C57BL/6 male mice; Table 24, injected Day 7, Day 28) was −54.1 ± 3.5% and the “mean percent change” value (C57BL/6 male mice; Table 24, injected Day 7, Day 32) was −41.9 ± 8.3%. For the same substance, the “mean percent change” value (C57BL/6 male mice; Table 24, injected Day 7, Day 35) was −43.9 ± 6.8%, the “mean percent change” value (C57BL/6 male mice; Table 24, injected Day 7, Day 42) was −35.0 ± 6.6% and the “mean percent change” value (C57BL/6 male mice; Table 24, injected Day 14, Day 5 after surgery) was −60.0 ± 4.8%. For the same substance, the “mean percent change” value (C57BL/6 male mice; Table 24, injected Day 14, Day 7) was −54.4 ± 6.4% and the “mean percent change” value (C57BL/6 male mice; Table 24, injected Day 14, Day 8) was −55.3 ± 6.1%.
